Laboratory results from US10995091B2 (Proximagen, LLC, priority 2010, dated 2021).
Structures can show the parent of a compound that is named as a salt.

The compounds below were run against T1, Human CXCR4 transfected HEK293 cells (Homo sapiens, UniProt P61073) (assay: CXCR4 functional calcium assay (calcium flux FLIPR, antagonism of SDF1 response)). Conditions: CXCR4 functional activity, antagonism of SDF1 (EC50 concentration), read-out: CXCR4 fKi.
T1 construct: expressed in transfected cells; host or cells: HEK293
T1 sequence (P61073 whole entry): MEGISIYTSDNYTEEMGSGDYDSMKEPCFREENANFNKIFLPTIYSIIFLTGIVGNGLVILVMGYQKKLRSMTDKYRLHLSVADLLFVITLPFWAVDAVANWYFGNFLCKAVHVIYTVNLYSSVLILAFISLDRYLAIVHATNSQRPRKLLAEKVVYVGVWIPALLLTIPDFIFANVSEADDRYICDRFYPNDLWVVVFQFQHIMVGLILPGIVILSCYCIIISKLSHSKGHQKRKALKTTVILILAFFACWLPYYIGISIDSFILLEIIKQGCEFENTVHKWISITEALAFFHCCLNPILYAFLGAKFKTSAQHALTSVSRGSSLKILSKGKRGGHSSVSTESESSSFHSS
Type: cell-based
Method in brief: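 Dose-dependent antagonism of the SDF1 response was read by FLIPR as Fluo-4 calcium signal (2 μM dye) in CXCR4-expressing human HEK293 cells, in HBSS with probenecid, BSA and HEPES at pH 7.4 and 37° C. Test compound was given before an EC50-level SDF1 challenge. Curves were then fitted.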

Compound | Ki [nM]
Cc1nc(-c2cccc(NCCNC3CCN(C(C)C)CC3)n2)[nH]c1C1CC1 [Example 236, N-(2-{[6-(5-Cyclopropyl-4-methyl-1H-imidazol-2-yl)pyridin-2-yl]amino}ethyl)-1-(propan-2-yl)piperidin-4-amine] | 100 to 500
O=C(NCC1CC1)c1cccc(N2CCCN(C3CCN(Cc4cccc(Cl)c4)CC3)CC2)n1 [Example 134, 6-(4-{1-[(3-Chlorophenyl)methyl]piperidin-4-yl}-1,4-diazepan-1-yl)-N-(cyclopropylmethyl)pyridine-2-carboxamide] | 100 to 500
CCCN1CCC(N2CCCN(c3cccc(C(=O)NCC4CC4)n3)CC2)CC1 [Example 61, N-(Cyclopropylmethyl)-6-[4-(1-propylpiperidin-4-yl)-1,4-diazepan-1-yl]pyridine-2-carboxamide] | 100 to 500
CC(C)N1CCCC(N2CCC(Oc3cccc(C(=O)Nc4ccncc4)n3)CC2)CC1 (centres unmarked) [Example 221, 6-({1-[1-(Propan-2-yl)azepan-4-yl]piperidin-4-yl}oxy)-N-(pyridin-4-yl)pyridine-2-carboxamide] | 100 to 500
Cc1nc(-c2cccc(NCCNC[C@@H]3CCN(C4CCCC4)C3)n2)[nH]c1C1CC1 [Example 247, {[(3S)-1-Cyclopentylpyrrolidin-3-yl]methyl}(2-{[6-(5-cyclopropyl-4-methyl-1H-imidazol-2-yl)pyridin-2-yl]amino}ethyl)amine] | 20 to 100
O=C(NCC1CC1)c1cccc(N2CCCN(C3CCN(Cc4ccccc4)CC3)CC2)n1 [Example 129, 6-[4-(1-Benzylpiperidin-4-yl)-1,4-diazepan-1-yl]-N-(cyclopropylmethyl)pyridine-2-carboxamide] | 500 to 1000
Cc1cc(NC(=O)c2cccc(N3CCCN(C4CCN(Cc5ccccc5Cl)CC4)CC3)n2)ccn1 [Example 84, 6-(4-{1-[(2-Chlorophenyl)methyl]piperidin-4-yl}-1,4-diazepan-1-yl)-N-(2-methylpyridine-4-yl)pyridine-2-carboxamide] | < 20
[2H]C1([2H])CCN(c2cccc(C(=O)Nc3ccncc3)n2)CCN1C1CCN(Cc2ccc(F)cc2Cl)CC1 [Example 203, 6-(4-{1-[(2-Chloro-4-fluorophenyl)methyl]piperidin-4-yl}-5,5-dihydrogenio-1,4-diazepan-1-yl)-N-(pyridin-4-yl)pyridine-2-carboxamide] | < 20
O=C(NCC1CC1)c1cccc(N2CCCN(C3CCN(C(CF)CF)CC3)CC2)n1 [Example 59, N-(Cyclopropylmethyl)-6-{4-[1-(1,3-difluoropropan-2-yl)piperidin-4-yl]-1,4-diazepan-1-yl}pyridine-2-carboxamide] | 100 to 500
[2H]C1([2H])CCN(C2CCN([C@@H](C)C(F)(F)F)CC2)CCN1c1cccc(C(=O)Nc2ccncc2)n1 [Example 178, 6-(7,7-Dihydrogenio-4-{1-[(2S)-1,1,1-trifluoropropan-2-yl]piperidin-4-yl}-1,4-diazepan-1-yl)-N-(pyridine-4-yl)pyridine-2-carboxamide] | 20 to 100
CC(C)N1CCC(NC2CCN(c3cccc(C(=O)Nc4ccncc4)n3)CC2)CC1 [Example 249, 6-(4-{[1-(Propan-2-yl)piperidin-4-yl]amino}piperidin-1-yl)-N-(pyridin-4-yl)pyridine-2-carboxamide] | 100 to 500
O=C(NC[C@H]1CCCO1)c1cccc(N2CCCN(C3CCN(Cc4ccccc4Cl)CC3)CC2)n1 [Example 51, 6-(4-{1-[(2-Chlorophenyl)methyl]piperidin-4-yl}-1,4-diazepan-1-yl)-N-[(2R)-oxolan-2-ylmethyl]pyridine-2-carboxamide] | 20 to 100
CC(C)N1CCC(CN[C@@H]2CCN(c3cccc(-c4ncc(C5CC5)[nH]4)n3)C2)CC1 [Example 223, (3R)-1-[6-(4-Cyclopropyl-1H-imidazol-2-yl)pyridin-2-yl]-N-{[1-(propan-2-yl)piperidin-4-yl]methyl}pyrrolidin-3-amine] | 500 to 1000
COc1ccccc1CN1CCC(N2CCCN(c3cccc(C(=O)NCC4CC4)n3)CC2)CC1 [Example 133, N-(Cyclopropylmethyl)-6-(4-{1-[(2-methoxyphenyl)methyl]piperidin-4-yl}-1,4-diazepan-1-yl)pyridine-2-carboxamide] | 20 to 100

More lines, now with the values ahead:

Ki [nM] | Compound
100 to 500 | CC(C)N1CCC(N2CCCN(c3cccc(-c4nc(-c5ccccc5)no4)n3)CC2)CC1 [Example 170, 1-[6-(3-Phenyl-1,2,4-oxadiazol-5-yl)pyridin-2-yl]-4-[1-(propan-2-yl)piperidin-4-yl]-1,4-diazepane]
20 to 100 | CC(C)N1CCC(N2CCCN(c3cccc(C(=O)NCc4cscn4)n3)CC2)CC1 [Example 42, 6-{4-[1-(Propan-2-yl)piperidin-4-yl]-1,4-diazepan-1-yl}-N-(1,3-thiazol-4-ylmethyl)pyridine-2-carboxamide]
100 to 500 | CC(C)N1CCC(N2CCCN(c3cccc(-c4noc(-c5cccnc5)n4)n3)CC2)CC1 [Example 166, 1-[1-(Propan-2-yl)piperidin-4-yl]-4-{6-[5-(pyridine-3-yl)-1,2,4-oxadiazol-3-yl]pyridine-2-yl}-1,4-diazepane tetrahydrochloride]
100 to 500 | Cc1cc2nc(-c3cccc(N4CCCN(C5CCN(C(C)C)CC5)CC4)n3)[nH]c2cc1C [Example 146, 5,6-Dimethyl-2-(6-{4-[1-(propan-2-yl)piperidin-4-yl]-1,4-diazepan-1-yl}pyridine-2-yl)-1H-1,3-benzodiazole]
< 20 | CC(C)N1CCC(N2CCCN(c3cccc(-c4nc5cnccc5[nH]4)n3)CC2)CC1 [Example 106, 1-(6-{3H-Imidazo[4,5-c]pyridin-2-yl}pyridin-2-yl)-4-[1-(propan-2-yl)piperidin-4-yl]-1,4-diazepane]
100 to 500 | CC(C)CNC(=O)c1cccc(N2CCCN(C3CCN(C(C)C)CC3)CC2)n1 [Example 6, N-(2-Methylpropyl)-6-{4-[1-(propan-2-yl)piperidin-4-yl]-1,4-diazepan-1-yl}pyridine-2-carboxamide]
20 to 100 | CC(C)N1CCC(N2CCCN(c3cccc(C(=O)NCc4cncs4)n3)CC2)CC1 [Example 43, 6-{4-[1-(Propan-2-yl)piperidin-4-yl]-1,4-diazepan-1-yl}-N-(1,3-thiazol-5-ylmethyl)pyridine-2-carboxamide]
100 to 500 | CC(C)N1CCC(N2CCCN(c3cccc(-c4nc5ccccc5o4)n3)CC2)CC1 [Example 152, 2-(6-{4-[1-(Propan-2-yl)piperidin-4-yl]-1,4-diazepan-1-yl}pyridine-2-yl)-1,3-benzoxazole]
< 20 | CC(C)N1CCC(N2CCCN(c3cccc(-c4nc5cc(F)c(F)cc5[nH]4)n3)CC2)CC1 [Example 145, 5,6-Difluoro-2-(6-{4-[1-(propan-2-yl)piperidin-4-yl]-1,4-diazepan-1-yl}pyridine-2-yl)-1,3-benzodiazole]
20 to 100 | O=C(Nc1cccnc1)c1cccc(N2CCCN(C3CCN(Cc4ccccc4Cl)CC3)CC2)n1 [Example 53]
100 to 500 | CC(C)N1CCC(N2CCCN(c3cccc(C(=O)NCc4cccnc4)n3)CC2)C(F)C1 (centres unmarked) [Example 185, 6-{4-[3-Fluoro-1-(propan-2-yl)piperidin-4-yl]-1,4-diazepan-1-yl}-N-(pyridin-3-ylmethyl)pyridine-2-carboxamide]
20 to 100 | C[C@H](N1CCC(N2CCCN(c3cccc(C(=O)NCc4cccnc4)n3)CC2)CC1)C(F)(F)F [Example 89, N-(Pyridin-3-ylmethyl)-6-(4-{1-[(2S)-1,1,1-trifluoropropan-2-yl]piperidin-4-yl}-1,4-diazepan-1-yl)pyridine-2-carboxamide]
